Literature values, collected in patent US12599598B2, “Osmotic dosage forms comprising deutetrabenazine and methods of use thereof” (Auspex Pharmaceuticals, Inc., priority 2020, dated 2026).

Conditions: in vivo

Compound: [2H]C([2H])([2H])Oc1cc2c(cc1OC([2H])([2H])[2H])[C@H]1CC(=O)[C@H](CC(C)C)CN1CC2 [Deutetrabenazine, (RR,SS)-1,3,4,6,7,11b-hexahydro-9,10-di(methoxy-d3)-3-(2-methylpropyl)-2H-benzo[a]quinolizin-2-one]
- half-life of its active metabolites, relative to tetrabenazine: increased half-life
